Source: US7833939B2, “Herbicide compositions” (Kumiai Chemical Industry Co., Ltd., priority 2002, dated 2010)

How the values were obtained:
corn = assay: Herbicidal effect by upland field soil treatment (Application Example 1): phytotoxicity to corn; type: in vivo; settings: 30th day from treatment
Protocol: (§1) Test for Herbicidal Effect by Upland Field Soil Treatment
(§2) An upland field soil was filled in a plastic pot of 11 cm each of length, width and depth. Seeds of corn, green foxtail (Setaria viridis) and common lambsquarters (Chenopodium album L.) were sowed, followed by covering with the same soil. The wettable powder produced in accordance with Formulation 1 was weighed so as to provide active ingredients in a predetermined amount, and was diluted with water and sprayed uniformly on the soil surface using a small sprayer, in an amount of 100 liters per […]. Then, growing was made in a greenhouse, and the herbicidal effect of each wettable powder was examined at the 30th day from the treatment in accordance with the standard shown in Table 15.

[1] = test system: common lambsquarters (Chenopodium album L.); assay: Herbicidal effect by upland field soil treatment (Application Example 1): common lambsquarters; type: in vivo; settings: 30th day from treatment
Protocol: as §1, §2

[2] = test system: green foxtail (Setaria viridis); assay: Herbicidal effect by upland field soil treatment (Application Example 1): green foxtail; type: in vivo; settings: 30th day from treatment
Protocol: as §1, §2

[3] = 32 g a.i./ha, soil surface spray of wettable powder, index of Table 15
[4] = 32 g a.i./ha, upland field soil treatment
[5] = 16 g a.i./ha, soil surface spray of wettable powder, index of Table 15
[6] = 500 g a.i./ha, soil surface spray of wettable powder, index of Table 15
[7] = 500 g a.i./ha, upland field soil treatment

Compound `CC1(C)CC(SCc2c(C(F)(F)F)nn(-c3ccccc3)c2Cl)=NO1` has a melting point of 89 to 90 °C.

In the case of `CC1(C)CC(SCc2c(C(F)(F)F)nn(C(C)(C)C)c2Cl)=NO1`, the melting point is reported as 79 to 81 °C.

With `CC1(C)CC(SCc2c(C(F)(F)F)n[nH]c2Cl)=NO1` the melting point was 120 to 122 °C.

For `CC1(C)CC(SCc2c(C(F)(F)F)nn(C(F)F)c2Cl)=NO1`, the melting point was 41 to 42 °C.

With `CC1(C)CC(SCc2c(Cl)nn(C(F)F)c2C(F)(F)F)=NO1` the melting point was 89 to 90 °C.

Work on `CC1(C)CC(S(=O)(=O)Cc2c(C(F)(F)F)nn3c2OCCC3)=NO1` yielded a melting point of 151 to 152 °C.

With `CC1(C)CC(S(=O)(=O)Cc2cnccc2C(F)(F)F)=NO1` the melting point was 77 to 80 °C.

In the case of `CON=C(C)c1c(C)sc(C)c1CS(=O)(=O)C1=NOC(C)(C)C1` [Compound 2-0001, 5,5-dimethyl-3-[2,5-dimethyl-4-(1-methoxyiminoethyl)-thiophen-3-ylmethylsulfonyl]-2-isoxazoline], the “Herbicidal effect Corn” value (corn; [3]) is reported as 0 (Herbicidal effect or phytotoxicity of from 0 to 9%), the “Herbicidal effect Common lambsquarter (Chenopodium album L.)” value (shortened to “Herbicidal effect Common lambsquarter”) [1, 3] is reported as 1 (Herbicidal effect or phytotoxicity of from 10 to 19%) and the melting point is reported as 95 to 96 °C. The “Herbicidal effect Green foxtail (Sataria viridis)” value (“Herbicidal effect Green foxtail” for short) [2, 3] was 2 (Herbicidal effect or phytotoxicity of from 20 to 29%).

With `CC1(C)CC(S(=O)(=O)Cc2c(C(F)(F)F)nn(-c3ccccc3)c2Cl)=NO1` [Compound 3-0002, 3-(5-chloro-1-phenyl-3-trifluoromethyl-1H-pyrazol-4-ylmethylsulfonyl)-5,5-dimethyl-2-isoxazoline] the “Herbicidal effect Corn” value (corn; [4]) was 0 (Herbicidal effect or phytotoxicity of from 0 to 9%), the “Herbicidal effect Common lambsquarter” value [1, 4] was 2 (Herbicidal effect or phytotoxicity of from 20 to 29%) and the melting point was 132 to 133 °C. The “Herbicidal effect Green foxtail” value [2, 4] was 5 (Herbicidal effect or phytotoxicity of from 50 to 59%).

For `Cn1nc(C(F)(F)F)c(CS(=O)(=O)C2=NOC(C)(C)C2)c1OC(F)F` [Compound 3-0188, 3-(5-difluoromethoxy-1-methyl-3-trifluoromethyl-1H-pyrazol-4-ylmethanesulfonyl)-5,5-dimethyl-2-isoxazoline], the “Herbicidal effect Common lambsquarter” value [1, 5] was 2 (Herbicidal effect or phytotoxicity of from 20 to 29%) and the “Herbicidal effect Green foxtail” value [2, 5] was 3 (Herbicidal effect or phytotoxicity of from 30 to 39%).

In the case of `Cc1nsc(Cl)c1CS(=O)(=O)C1=NOC(C)(C)C1` [Compound 4-0002, [(5-chloro-3-methyl-isothiazol-4-yl)-methylsulfonyl]-5,5-dimethyl-2-isoxazoline], the “Herbicidal effect Corn” value (corn; [3]) is reported as 0 (Herbicidal effect or phytotoxicity of from 0 to 9%), the “Herbicidal effect Common lambsquarter” value [1, 3] is reported as 2 (Herbicidal effect or phytotoxicity of from 20 to 29%) and the “Herbicidal effect Green foxtail” value [2, 3] is reported as 3 (Herbicidal effect or phytotoxicity of from 30 to 39%).

For `COc1ncnc(C(F)(F)F)c1CS(=O)(=O)C1=NOC(C)(C)C1` [Compound 8-0001, 5,5-dimethyl-[(4-methoxy-6-trifluoromethylpyrimidin-5-yl)-methylsulfonyl]-2-isoxazoline], the “Herbicidal effect Corn” value (corn; [5]) was 0 (Herbicidal effect or phytotoxicity of from 0 to 9%), the “Herbicidal effect Common lambsquarter” value [1, 5] was 1 (Herbicidal effect or phytotoxicity of from 10 to 19%) and the “Herbicidal effect Green foxtail” value [2, 5] was 2 (Herbicidal effect or phytotoxicity of from 20 to 29%).

With `CCNc1nc(Cl)nc(NC(C)(C)C#N)n1` [Cyanazine, cyanazine, reference compound] the “Herbicidal effect Corn” value (corn; [6]) was 0 (Herbicidal effect or phytotoxicity of from 0 to 9%), the “Herbicidal effect Corn” value (corn; [7]) was 0 (Herbicidal effect or phytotoxicity of from 0 to 9%) and the “Herbicidal effect Common lambsquarter” value [1, 6] was 2 (Herbicidal effect or phytotoxicity of from 20 to 29%). For the same compound, the “Herbicidal effect Common lambsquarter” value [1, 7] was 2 (Herbicidal effect or phytotoxicity of from 20 to 29%), the “Herbicidal effect Green foxtail” value [2, 6] was 1 (Herbicidal effect or phytotoxicity of from 10 to 19%) and the “Herbicidal effect Green foxtail” value [2, 7] was 1 (Herbicidal effect or phytotoxicity of from 10 to 19%).
